How the values were obtained:
ST2 cells = assay: Osteoblast differentiation test (alkaline phosphatase activity); assay type: cell-based; conditions: Mus musculus, ST-2, 96 h; at 0.03 μg/mL; culturing for four days; control group (0.1% DMSO) = 100%; read-out: alkaline phosphatase activity increase rate
Method: ST2 cells (available from Institute of Physical and Chemical Research) which are stroma cells derived from mouse marrow were used. In this test, α-MEM medium (available from GIBCO BRL Cat. No. 10370-021) with which 10% (v/v) inactivated fetal bovine serum (available from Hyclone Company, FBS) and 1% (v/v) Penicillin-Streptomycin, Liquid (available from GIBCO BRL Cat. No. 15140-122) are mixed (hereinbelow abbreviated as 10% -FBS-αMEM) was used. Every culture in this test was conducted in a CO2 incubator (37° C., 95% humidity, 5% CO2).
The cells mentioned above were harvested with 2 mL of 0.25% trypsin solution (available from GIBCO BRL Cat. No. 15050-065) and after they were dispersed by adding 10 mL of 10% -FBS-αMEM, the cells were collected by centrifugal separation (25° C., 800 rpm, 5 minutes). A cell suspension containing 40,000 cells/mL was prepared from the collected cells using 10% -FBS-αMEM.
The cell suspension was dispensed to the wells of a 96 well microplate (Falcon company) in an amount of 100 μL per well so as to achieve 4,000 cells/well and cultured for 24 hours. Compounds were dispensed to the wells in final concentrations of 0.01, 0.03, 0.1, 0.3 μg/ml except the following control group. DMSO was dispensed to the wells of the control group in a final concentration of 0.1% (v/v). Alkaline phosphatase (ALP) activity was measured for each group after culturing for four days.
The measurement of ALP activity was performed as follows. That is, after the whole medium was removed from each well of the culturing plate, each well was washed twice by dispensing and removing 100 μL of Dulbecco's phosphate buffer (available from GIBCO BRL Cat. No. 14190-144). Cell lysing solution containing 10 mM MgCl2 and 2%(v/v) TritonX-100 (Sigma company) was prepared and 50 μL/well of the cell lysing solution was dispensed and the mixture was stirred at room temperature for five minutes. An ALP substrate solution containing 50 mM of diethanolamine (Wako Pure Chemical Industries, Ltd. Cat. No. 099-03112) and 20 mM of […] (Wako Pure Chemical Industries, Ltd. Cat. No. 147-02343) was prepared and 50 μL/well of the ALP substrate solution was dispensed and after allowing to stand at room temperature for 10 minutes, absorbance was measured using a microplate reader (Bio-rad company). Alkaline phosphatase activity increase rate (%) in the group blended with test compounds was calculated assuming the observed value of the control group of each plate to be 100% and evaluated as the osteoblast differentiation promoting activity.

Structure (SMILES) | activity at 0.03 µg/mL (ST2 cells) [%] | melting point
COc1ccc(N2CCCN(c3ccnc4sc(C(N)=O)c(N)c34)CC2)cc1 [Example 58, 3-amino-4-[4-(4-methoxyphenyl)-1,4-diazepan-1-yl]thieno[2,3-b]pyridine-2-carboxamide] | > 150 | 206 to 208 °C
CSc1ccc(N2CCCN(c3ccnc4sc(C(N)=O)c(N)c34)CC2)cc1 [Example 64, 3-amino-4-{4-[4-(methylthio)phenyl]-1,4-diazepan-1-yl}thieno[2,3-b]pyridine-2-carboxamide] | > 150 | 186 to 188 °C
NC(=O)c1sc2nccc(N3CCCN(c4ccc([N+](=O)[O-])cc4)CC3)c2c1N [Example 59, 3-amino-4-[4-(4-nitrophenyl)-1,4-diazepan-1-yl]thieno[2,3-b]pyridine-2-carboxamide] | > 150 | 244 to 248 °C
CN(C)c1ccc(N2CCCN(c3ccnc4sc(C(N)=O)c(N)c34)CC2)cc1 [Example 74, 3-amino-4-{4-[4-(dimethylamino)phenyl]-1,4-diazepan-1-yl}thieno[2,3-b]pyridine-2-carboxamide] | > 150 | 174 to 176 °C
Cc1ccc(N2CCCN(c3ccnc4sc(C(N)=O)c(N)c34)CC2)cc1 [Example 77, 3-amino-4-[4-(4-methylphenyl)-1,4-diazepan-1-yl]thieno[2,3-b]pyridine-2-carboxamide] | > 150 | 175 to 176 °C
NC(=O)c1sc2nccc(N3CCCN(c4ccc(F)cc4)CC3)c2c1N [Example 76, 3-amino-4-[4-(4-fluorophenyl)-1,4-diazepan-1-yl]thieno[2,3-b]pyridine-2-carboxamide] | > 150 | 203 to 205 °C
NC(=O)c1sc2nccc(N3CCCCC3)c2c1N [Example 14, 3-amino-4-piperidin-1-ylthieno[2,3-b]pyridine-2-carboxamide] | > 150 | 191 to 192 °C
Cc1ccc(N2CCCN(c3ccnc4sc(C(N)=O)c(N)c34)CC2)cc1C [Example 84, 3-amino-4-[4-(3,4-dimethylphenyl)-1,4-diazepan-1-yl]thieno[2,3-b]pyridine-2-carboxamide] | > 150 | 195 to 197 °C
NC(=O)c1sc2nccc(N3CC[C@@H]4CCCC[C@@H]4C3)c2c1N (relative stereo) [Example 29, 3-amino-4-(cis-perhydroisoquinolin-2-yl)thieno[2,3-b]pyridine-2-carboxamide] | > 150 | 224 to 226 °C
CCc1ccc(N2CCCN(c3ccnc4sc(C(N)=O)c(N)c34)CC2)cc1 [Example 93, 3-amino-4-[4-(4-ethylphenyl)-1,4-diazepan-1-yl]thieno[2,3-b]pyridine-2-carboxamide] | > 150 | 186 to 188 °C
COc1cccc(N2CCCN(c3ccnc4sc(C(N)=O)c(N)c34)CC2)c1 [Example 68, 3-amino-4-[4-(3-methoxyphenyl)-1,4-diazepan-1-yl]thieno[2,3-b]pyridine-2-carboxamide] | > 150 | 193 to 195 °C
NC(=O)c1sc2nccc(NCc3ccccc3)c2c1N [Example 7, 3-amino-4-(benzylamino)thieno[2,3-b]pyridine-2-carboxamide] | – | 260 to 262 °C
CS(=O)(=O)N1CCCN(c2ccnc3sc(C(N)=O)c(N)c23)CC1 [Example 104, 3-amino-4-[4-(methylsulfonyl)-1,4-diazepan-1-yl]thieno[2,3-b]pyridine-2-carboxamide] | – | 214 to 217 °C
NC(=O)c1sc2nccc(N3CCCN(c4ccc(Cl)nn4)CC3)c2c1N [Example 105, 3-amino-4-[4-(6-chloropyridazin-3-yl)-1,4-diazepan-1-yl]thieno[2,3-b]pyridine-2-carboxamide] | – | 232 to 234 °C
NC(=O)c1sc2nccc(NC3CCCCC3)c2c1N [Example 11, 3-amino-4-(cyclohexylamino)thieno[2,3-b]pyridine-2-carboxamide] | – | 244 to 247 °C
CC1CCCN(c2ccnc3sc(C(N)=O)c(N)c23)C1 (centres unmarked) [Example 16, 3-amino-4-(3-methylpiperidin-1-yl)thieno[2,3-b]pyridine-2-carboxamide] | > 150 | 201 to 204 °C
NC(=O)c1sc2nccc(OCc3ccccc3)c2c1N [Example 110, 3-amino-4-(benzyloxy)thieno[2,3-b]pyridine-2-carboxamide] | – | 216 to 221 °C
CC(C)Oc1ccnc2sc(C(N)=O)c(N)c12 [Example 111, 3-amino-4-isopropoxythieno[2,3-b]pyridine-2-carboxamide] | – | 238 to 240 °C (dec.)
NC(=O)c1sc2nccc(N3CCCN(c4cccnc4)CC3)c2c1N [Example 96, 3-amino-4-(4-pyridin-3-yl-1,4-diazepan-1-yl)thieno[2,3-b]pyridine-2-carboxamide] | > 150 | –
NC(=O)c1sc2nccc(N3CCN(c4ccccc4)CC3)c2c1N [Example 42, 3-amino-4-(4-phenylpiperazin-1-yl)thieno[2,3-b]pyridine-2-carboxamide] | – | 250 to 252 °C
CCN1CCN(c2ccnc3sc(C(N)=O)c(N)c23)CC1 [Example 40, 3-amino-4-(4-ethylpiperazin-1-yl)thieno[2,3-b]pyridine-2-carboxamide] | – | 218 to 219 °C
Cc1ccccc1N1CCCN(c2ccnc3sc(C(N)=O)c(N)c23)CC1 [Example 70, 3-amino-4-[4-(2-toluyl)-1,4-diazepan-1-yl]thieno[2,3-b]pyridine-2-carboxamide] | – | 206 to 209 °C (dec.)
C[C@@H]1CN(c2ccnc3sc(C(N)=O)c(N)c23)C[C@H](C)O1 [Example 23, 3-amino-4-(cis-2,6-dimethylmorpholin-4-yl)thieno[2,3-b]pyridine-2-carboxamide] | – | 242 to 244 °C
NC(=O)c1sc2nccc(N3CCCSCC3)c2c1N [Example 33, 3-amino-4-(1,4-thiazepan-4-yl)thieno[2,3-b]pyridine-2-carboxamide] | – | 171 to 174 °C
NC(=O)c1sc2nccc(N3CCCN(Cc4ccccc4)CC3)c2c1N [Example 56, 3-amino-4-(4-benzyl-1,4-diazepan-1-yl)thieno[2,3-b]pyridine-2-carboxamide] | – | 194 to 195 °C
CC1CCN(c2ccnc3sc(C(N)=O)c(N)c23)CC1 [Example 15, 3-amino-4-(4-methylpiperidin-1-yl)thieno[2,3-b]pyridine-2-carboxamide] | – | 252 to 254 °C
CC(C)N1CCN(c2ccnc3sc(C(N)=O)c(N)c23)CC1 [Example 41, 3-amino-4-(4-isopropylpiperazin-1-yl)thieno[2,3-b]pyridine-2-carboxamide] | – | 240 to 243 °C
NC(=O)c1sc2nccc(NC3CCCCCC3)c2c1N [Example 12, 3-amino-4-(cycloheptylamino)thieno[2,3-b]pyridine-2-carboxamide] | – | 206 to 208 °C
NC(=O)c1sc2nccc(N3CCCN(c4c(F)c(F)nc(F)c4F)CC3)c2c1N [Example 88, 3-amino-4-[4-(2,3,5,6-tetrafluoropyridin-4-yl)-1,4-diazepan-1-yl]thieno[2,3-b]pyridine-2-carboxamide] | – | 228 to 231 °C

Reference: patent publication US20070219234A1, “Thienopyridine Derivatives” (priority 2004, published 2007)
